Experimental data from US10765664B2, “Treatment of infectious diseases” (CHILDREN'S MEDICAL CENTER CORPORATION, priority 2015, dated 2020).
Read-outs that look alike come from different tables or passages of the source.

What was measured:
[1] = system: influenza; settings: in vivo; cited from earlier work
[2] = system: nonreplicating MTb; settings: cited from earlier work
[3] = system: HCV; settings: added to ribavirin plus pegylated IFN; cited from earlier work
[4] = system: HIV-1Bal/ZsGreen1; type: cell-based; settings: pretreatment with 1 μM NTZ
[5] = system: MTb-infected THP-1 cells and human monocytes; settings: through inhibition of NQO1; cited from earlier work
[6] = system: HIV; type: cell-based; settings: MDM or AM/lymphocyte system; expected
[7] = system: MTb; settings: by inhibiting the mTOR pathway; cited from earlier work
[8] = system: live Ebola virus; type: cell-based
[9] = system: Zaire ebolavirus GP-pseudotyped lentivirus; assay: organism not typed; type: cell-based
[10] = system: THP-1 cells; assay: Cellular acidification of THP-1 cells, Lysotracker Red flow cytometry; settings: 24 hrs
[11] = system: HIV LTR; type: cell-based
[12] = biological target: PKR (Homo sapiens, UniProt P19525); settings: hepatoma cells; cited from earlier work
Sequence of PKR (Homo sapiens, UniProt P19525) (P19525 whole entry): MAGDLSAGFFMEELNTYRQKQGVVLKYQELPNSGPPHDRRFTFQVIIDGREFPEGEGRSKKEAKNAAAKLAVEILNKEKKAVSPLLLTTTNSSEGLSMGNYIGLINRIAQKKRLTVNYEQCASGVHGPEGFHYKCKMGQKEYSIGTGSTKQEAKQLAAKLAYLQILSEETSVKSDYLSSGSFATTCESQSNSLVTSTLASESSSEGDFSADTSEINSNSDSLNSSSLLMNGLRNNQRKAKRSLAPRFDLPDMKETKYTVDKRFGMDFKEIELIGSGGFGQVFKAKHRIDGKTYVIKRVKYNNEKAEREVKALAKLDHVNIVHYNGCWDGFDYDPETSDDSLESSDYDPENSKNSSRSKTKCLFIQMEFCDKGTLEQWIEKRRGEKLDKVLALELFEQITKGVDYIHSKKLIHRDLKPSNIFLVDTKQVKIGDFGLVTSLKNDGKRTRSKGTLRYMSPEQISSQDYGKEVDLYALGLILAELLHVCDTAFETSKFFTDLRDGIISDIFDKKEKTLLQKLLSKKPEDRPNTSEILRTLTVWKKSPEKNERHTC

[13] = system: RIG-I; assay: RIG-I gene transcription in HeLa cells; type: cell-based, human
[14] = system: X4-tropic HIV; settings: human PBMC, with glucocorticoids; cited from earlier work
[15] = system: H37Rv-mCherry MTb; type: cell-based, Mycobacterium tuberculosis; settings: concentration-dependent; 0, 5, 10, 15, or 20 μM NTZ pretreatment
[16] = system: PKR; assay: PKR gene transcription in HeLa cells; type: cell-based, human
[17] = system: HIV LTR; type: cell-based; settings: for HIV transcriptional activation (LTR-Renilla): NTZ 5 or 10 μM pretreatment
[18] = in vivo; cited from earlier work
[19] = in vivo; cited from earlier work; remark: listed apart in the source
[20] = tizoxanide after a 500 mg dose of NTZ; cited from earlier work
[21] = system: IFITM3; assay: IFITM3 mRNA in THP-1 cells stimulated with cytokines or TLR agonists, real time PCR; type: cell-based, human; settings: for IFITM3 mRNA induction: data not shown (Example 3)

**Q.** What does the source list for `CC(=O)Oc1ccccc1C(=O)Nc1ncc([N+](=O)[O-])s1` [NTZ, [2-[(5-nitro-1,3-thiazol-2-yl)carbamoyl]phenyl] ethanoate]?
**A.** treatment of uncomplicated influenza [1]: efficacy; reduction of viable, nonreplicating MTb [2]: over 2 log units; HCV virological response [3]: significantly improve; HIVBALZsGreen1 infection of MDM [4]: suppresses; autophagy [5]: promotes autophagy; MTb augmentation of HIV replication [6]: suppressed; MTb proliferation [7]: suppress; inhibition of live Ebola virus [8]: inhibit; infection by Zaire Ebolavirus GP-pseudotyped lentiviral particles [9]: inhibits; inhibition at 8 µM ([9]; THP-1, read-out: inhibition of ZE-LV infection): ~40%; intracellular acidity [10]: increased intracellular acidity; LTR reactivation (ZsGreen1) ([11]; TLR2 agonist Pam3Cys, 10 μM NTZ, 6 hrs): reduces; LTR reactivation (ZsGreen1) ([11]; direct MTb infection, 6 hours): reduces; autophosphorylation of PKR [12]: directly induces; transcription of RIG-I gene [13]: induce; suppression of X4-tropic HIV replication [14]: synergizes; MTb infection of THP-1 cells [15]: potently inhibits; transcription of PKR gene [16]: induce; activation of the integrated LTR-Renilla reporter gene ([17]; MTb infection, not shown): significantly inhibits; HIV transcriptional activation (LTR-Renilla) ([17]; Sendai virus infection): inhibited; HIV transcriptional activation (LTR-Renilla) ([17]; stimulation with TLR2 agonist Pam3Cys): inhibited

**Q.** Which “absorption in the GI tract compared to NTZ” value [18] does the source give for `CC(=O)Oc1ccccc1C(=O)Nc1ncc(Cl)s1` [RM-5038] here?
**A.** Its value is “better absorbed”.

**Q.** And the “tolerability compared to NTZ” value [19]?
**A.** Its value is “better tolerated”.

**Q.** Which “peak mean plasma concentration” value [20] does the source give for `O=C(Nc1ncc([N+](=O)[O-])s1)c1ccccc1O` [tizoxanide] here?
**A.** Its value is 26 µM.

**Q.** For IFN-γ: IFN-γ treatment, which “IFITM3 mRNA induction” value [21] is on record?
**A.** The value was “strongly induced”.

**Q.** For IL-1β: recombinant IL-1β, which “IFITM3 mRNA vs untreated control cells” value ([21]; THP-1 cells, by 48 hrs) is on record?
**A.** Its value is “significantly elevated”.

**Q.** Which IFITM3 transcript levels ([21]; THP-1 cells, by 24 hours post-stimulation) does the source give for IL-6: recombinant IL-6 here?
**A.** Its IFITM3 transcript levels is “significant increase”.

**Q.** With MCP-1: MCP-1 cytokine treatment as the molecule, how does the “IFITM3 mRNA induction” value [21] read?
**A.** The value was “not induced”.

**Q.** With Pam3Cys as the molecule, how does the IFITM3 gene expression ([21]; THP-1 cells, TLR agonist 100 ng/ml, 24 and 48 hours) read?
**A.** Its IFITM3 gene expression is “significantly induced”.
